Patent EP0252380B1, “Antibiotic LL-E19020 alpha and beta” (AMERICAN CYANAMID COMPANY, priority 1986, dated 1988)
In brackets after ≈: the same amount, converted by molar mass. Read-outs that look alike come from different tables or passages of the source. Marks after values point to notes of the source that are not given here.

Assays:
Treponema hyodysenteriae [1] = experiment: Minimum inhibitory concentration by microdilution (Table VII); type: cell-based; conditions: Brachyspira hyodysenteriae, read-out: MIC
[2] = system: Pasteurella haemolytica 30660; experiment: Pasteurella disk test (primary in vitro disk diffusion test); type: cell-based; conditions: Mannheimia haemolytica; disks soaked in 2.5 mg/ml solution; strain 30660
[3] = system: Pasteurella multocida 31081B; experiment: as above; conditions: Pasteurella multocida, 31081B, read-out: ZONE SIZE
Treponema hyodysenteriae [4] = experiment: T. hyodysenteriae disk test (primary in vitro disk diffusion test); conditions: Brachyspira hyodysenteriae
[5] = system: Mycoplasma gallisepticum "R"; experiment: Minimum inhibitory concentration assay for Mycoplasma gallisepticum (microdilution, Table VII); conditions: Mycoplasmoides gallisepticum
[6] = system: In Vitro Rumen Fermentation; experiment: Propionate enhancement activity during in vitro rumen fermentation; type: cell-based, steer; conditions: for A:P: acetate/propionate ratio
Description: The drugs are dissolved or suspended (sonified if necessary) in a 0.1% Tween 20-ethanol-water vehicle and 25-50 ul is added to the incubation. The reaction is terminated with 6N HCl and centrifuged at 20,000 x g. Alliquots of the superinatant are analyzed for volatile fatty acid (VFA) content by gas-liquid chromatography.

[7] = Weight gain and feed efficiency of broiler chicks (Example 6, Table IX); type: in vivo, Peterson X Arbor Acres chicks; conditions: 200 PPM in diet
[8] = Weight gains and feed efficiency in broiler chicks treated with E19020 alpha (Table IX A); type: in vivo; conditions: 200 PPM
Description: Five male and five female one day old Peterson X Arbor Acres chicks are allotted to starter battery cages by weight. Cages are randomized to treatment groups with seven replicates per treatment. […] The positive standard is penicillin at 200 ppm. Diets are prepared weekly.

[9] = ATCC27164, strain B78 (ATCC 27164)
[10] = ATCC31212, strain B204 (ATCC 31212)

## COC(=O)N/N=C/c1c[n+]([O-])c2ccccc2[n+]1[O-] [CARBADOX, reference compound]
Treponema hyodysenteriae [1]; [9]
  MIC: 0.5 µg/mL (≈ 1.91 µM)
Treponema hyodysenteriae [1]; [10]
  MIC: 0.25 µg/mL (≈ 0.953 µM)

## CN(C)C1C(=O)C(C(N)=O)=C(O)C2(O)C(=O)C3=C(O)c4c(O)ccc(Cl)c4C(C)(O)C3CC12 (stereo not shown) [CTC, reference compound]
[2]
  zone of inhibition at 2500 µg/mL: 11 mm
[3]
  zone of inhibition at 2500 µg/mL: 25 mm
Treponema hyodysenteriae [4]; ATCC27164, read-out: ZONE SIZE
  zone of inhibition at 2500 µg/mL: 45 mm
Treponema hyodysenteriae [4]; ATCC31212, read-out: ZONE SIZE
  zone of inhibition at 2500 µg/mL: 37 mm
[5]
  MIC: 0.5 µg/mL (≈ 1.04 µM)

## C=C[C@]1(C)C[C@@H](OC(=O)CSCCN(CC)CC)[C@]2(C)[C@H](C)CC[C@]3(CCC(=O)[C@H]32)[C@@H](C)[C@@H]1O [TIAMULIN, reference compound]
Treponema hyodysenteriae [1]; [9]
  MIC: 0.015 µg/mL (≈ 0.0304 µM)
Treponema hyodysenteriae [1]; [10]
  MIC: 0.015 µg/mL (≈ 0.0304 µM)
Treponema hyodysenteriae [4]; ATCC27164, read-out: ZONE SIZE
  zone of inhibition at 2500 µg/mL: 67 mm
Treponema hyodysenteriae [4]; ATCC31212, read-out: ZONE SIZE
  zone of inhibition at 2500 µg/mL: 70 mm

## CC[C@H]1OC(=O)C[C@@H](O)[C@H](C)[C@@H](O[C@@H]2O[C@H](C)[C@@H](O[C@H]3C[C@@](C)(O)[C@@H](O)[C@H](C)O3)[C@H](N(C)C)[C@H]2O)[C@@H](CC=O)C[C@@H](C)C(=O)/C=C/C(C)=C/[C@@H]1CO[C@@H]1O[C@H](C)[C@@H](O)[C@@H](OC)[C@H]1OC [TYLOSIN, reference compound]
[5]
  MIC: 0.03 µg/mL (≈ 0.0327 µM)

## AVOPARCIN [reference compound]
[6]; Table X, 1.0 PPM, control 2.65
  A:P: 2.38
[6]; Table X, 1.0 PPM, control 159.4
  TOTAL VFA: 159.4 mM
[6]; Table X, 2.000 PPM, control 2.65
  A:P: 2.23
[6]; Table X, 2.000 PPM, control 159.4
  TOTAL VFA: 160.2 mM
[6]; Table X, 4.0 PPM, control 2.65
  A:P: 2.12
[6]; Table X, 4.0 PPM, control 159.4
  TOTAL VFA: 158.9 mM
[6]; Table X, 8.0 PPM, control 2.65
  A:P: 2.08
[6]; Table X, 8.0 PPM, control 159.4
  TOTAL VFA: 158.3 mM
[6]; Table XI, 1.0 PPM, control 2.19
  A:P: 2.02
[6]; Table XI, 1.0 PPM, control 125.3
  TOTAL VFA: 126.9 mM
[6]; Table XI, 2.0 PPM, control 2.19
  A:P: 1.98
[6]; Table XI, 2.0 PPM, control 125.3
  TOTAL VFA: 125.3 mM
[6]; Table XI, 4.0 PPM, control 2.19
  A:P: 1.90
[6]; Table XI, 4.0 PPM, control 125.3
  TOTAL VFA: 121.3 mM
[6]; Table XI, 8.0 PPM, control 2.19
  A:P: 1.88
[6]; Table XI, 8.0 PPM, control 125.3
  TOTAL VFA: 119.4 mM

## Penicillin [reference compound]
[7]
  Wg Gains And Feed Efficiency % Improvement Over Controls COMBINED: 3.5%
  Wg Gains And Feed Efficiency % Improvement Over Controls FEMALES: 4.2%
  Wg Gains And Feed Efficiency % Improvement Over Controls MALES: 2.4%
[7]; control 1.41
  Wg Gains And Feed Efficiency % Improvement Over Controls FEED/GAIN: 1.35**
[8]
  FEED/GAIN % I[…] CONTROLS 0-3 WEEKS: 3.5%
  FEED/GAIN % I[…] CONTROLS 0-7 WEEKS: 6.0%
  WEIGHT GAIN % I[…] CONTROLS 0-3 WEEKS: 4.9%
  WEIGHT GAIN % I[…] CONTROLS 0-7 WEEKS: 3.4%
[8]; control 1.43
  FEED/GAIN 0-3 WEEKS: 1.38**
[8]; control 1.99
  FEED/GAIN 0-7 WEEKS: 1.87**
[8]; control 608
  WEIGHT GAIN IN GRAMS 0-3 WEEKS: 638* GRAMS
[8]; control 2145
  WEIGHT GAIN IN GRAMS 0-7 WEEKS: 2217 GRAMS
